# Assay results as given in patent US20080227832A1, “Modified Coffee, Method of Roasting Coffee Bean, Coffee-Like Supplement and Auxiliary Food” (TAMA-TLO Corporation, priority 2004, published 2008).
# Read-outs that look alike come from different tables or passages of the source.
# What was measured:
# [1] = system: absorption of glucose in digestive tracts; details: animal test; cited from earlier work
# male Wistar rats [2] = experiment: Blood free-fatty acid level time course after 5-MPCA; assay type: in vivo, rat; details: 50 mg/kg, 1, 2, 4 and 6 hours after administration
# Procedure: Further, using four-week-old male Wistar rats, the following experiment was performed. A control group was administered with physiological saline. A test group was administered with a solution of 50 mg/kg of 5-methylpyrazine-2-carboxylic acid (5-MPCA) dissolved in physiological saline. Immediately before starting the administration and 1, 2, 4, and 6 hours after the administration, each 6 rats were decapitated and blood was collected from each rat. According to a conventional method, plasma was separated from each sample blood and blood levels of free-fatty acid (FFA) were determined using a kit for determining free-fatty acid level. […] That is, FIG. 10 is a diagram showing the effect of 5-methylpyrazinecarboxylic acid on the blood free-fatty acid level of the rats.
# insulin sensitivity = details: rat, in vivo; cited from earlier work
# male Wistar rats [3] = details: oral, 10 mg/kg nicotinic acid alone
# male Wistar rats [4] = system: male Wistar rats
# [5] = Metabolites in 24-hour urine of rats given Maillard reaction products orally (HPLC); details: rat
# Procedure: Then, 100 μl of acetonitrile/phosphate buffer (7/93) adjusted to pH 2.0 was injected into the HPLC apparatus through the injection microsyringe. The apparatus and the experimental conditions were the same as those described above.
# The specification of the HPLC apparatus and experimental conditions were the same as described above.
# [6] = Water solubility as described for addition to liquid foods; assay type: physicochemical
# Procedure: The case where the above-mentioned group A to C compounds are added to any liquid foods and beverages (coffee, refreshing beverages, etc.) or hydrophilic solutions (for example, aqueous solutions and alcohol solutions) is described hereinbelow. […] Since the group B compounds are water-soluble but have strong volatility, it is recommended that simple dissolution thereof may be performed after concentration of a coffee extract and freeze-drying, if any. […] Since the group C compounds are water-soluble but have weak volatility, they may be simply dissolved similarly to the group B compounds.
compound,measurement,setting,value
"O=C(/C=C/c1ccc(O)c(O)c1)O[C@@H]1C[C@](O)(C(=O)O)C[C@@H](O)[C@H]1O [Chlorogenic acid, chlorogenic acid]",speed of absorption of glucose in digestive tracts,[1],reducing a speed of absorption of glucose in digestive tracts
"Cc1cnc(C(=O)O)cn1 [5-MPCA, 5-methyl-pyrazine-2-carboxylic acid]",rebound phenomenon of blood free-fatty acid level,male Wistar rats [2],no rebound phenomenon
chlorogenic lactone,insulin sensitivity,insulin sensitivity,Enhancement of insulin sensitivity
O=C(O)c1cccnc1 [nicotinic acid],rebound phenomenon after 1 hour of the administration,male Wistar rats [3],present in a mixed manner
same,rebound phenomenon after 2 hours of the administration,male Wistar rats [3],all the animals showed the rebound phenomenon
same,time after which rebound phenomenon was observed,male Wistar rats [4]; 10 to 20 mg/kg,2 h
same,time after which rebound phenomenon was observed,"male Wistar rats [4]; oral, 5 mg/kg",1 h
same,time after which rebound phenomenon was observed,"male Wistar rats [4]; oral, 10 mg/kg",2 h
same,time after which rebound phenomenon was observed,"male Wistar rats [4]; oral, 50 mg/kg",4 h
same,blood free-fatty acid level after 30 minutes of the administration,"male Wistar rats [4]; oral, any dose of from 5 mg/kg to 50 mg/kg",≤ 0.5 mEq/l
"Cc1cnc(C)cn1 [2,5-dimethylpyrazine]",conversion by metabolism in liver,"[5]; 50 mg/kg, 24-hour urine",converted into a group C compound
O=Cc1ccc[nH]1 [pyrrole-2-aldehyde],recovery in urine (in words),"[5]; 50 mg/kg oral, urine collected after 24 hours",almost quantitative
Cc1nc(C)c(C)nc1C [tetramethylpyrazine],water solubility,[6],hardly water-soluble
